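Exposure lasted 48 hours, with cells grown in 96-well plates and compounds tested at five concentrations. GI50: concentration for 50% inhibition of growth.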 Activity calls are given as the source filed them. Rule as the data show it: active = GI50 up to about 1.1 µM and inactive = higher. Square brackets hold non-standard residues; d marks the D form. Peptide text beside a SMILES is read from it. * marks the point of attachment. Bn2Val = CC(C)[C@@H](C(=O)*)N(Cc1ccccc1)Cc1ccccc1; NH(3,4-diMeO-benzyl) = COc1ccc(CN*)cc1OC; NMeV = CN[C@H](C(=O)O)C(C)C; dNMeA = CN[C@H](C)C(=O)O
Experiments:
Experiment in all cases: NCI-60 cell line screen, 48 h
[1] = tested on: A498
[2] = tested on: EKVX
[3] = tested on: HCT-116
[4] = tested on: HOP-92
[5] = tested on: Hs-578T
[6] = tested on: IGROV-1
[7] = tested on: K562
[8] = tested on: LOX IMVI
[9] = tested on: NCI-H23
[10] = tested on: NCI-H460
[11] = tested on: NCI-H522
[12] = tested on: OVCAR-4
[13] = tested on: RPMI-8226
[14] = tested on: SK-MEL-28
[15] = tested on: SK-MEL-2
[16] = tested on: SK-OV-3
[17] = tested on: SW-620
[18] = tested on: T47D
[19] = tested on: CCRF-CEM
[20] = tested on: SR

Row | Compound | GI50 [1] | GI50 [2] | GI50 [3] | GI50 [4] | GI50 [5] | GI50 [6] | GI50 [7] | GI50 [8] | GI50 [9] | GI50 [10] | GI50 [11] | GI50 [12] | GI50 [13] | GI50 [14] | GI50 [15] | GI50 [16] | GI50 [17] | GI50 [18] | GI50 [19] | GI50 [20]
1 | CC12CCC(C1)C(C)(C)C2OC(=O)c1ccccc1C(=O)O (configuration not stated) | > 100 µM (inactive) | > 100 µM (inactive) | > 100 µM (inactive) | > 100 µM (inactive) | 8.97 µM (inactive) | > 100 µM (inactive) | > 100 µM (inactive) | > 100 µM (inactive) | > 100 µM (inactive) | > 100 µM (inactive) | > 100 µM (inactive) | > 100 µM (inactive) | > 100 µM (inactive) | > 100 µM (inactive) | > 100 µM (inactive) | > 100 µM (inactive) | > 100 µM (inactive) | > 100 µM (inactive) | – | –
2 | Cn1cnc2c(sc3nc4ccccc4n32)c1=N | > 100 µM (inactive) | 52.2 µM (inactive) | > 100 µM (inactive) | > 100 µM (inactive) | 42.7 µM (inactive) | 22.6 µM (inactive) | – | > 100 µM (inactive) | > 100 µM (inactive) | – | – | > 100 µM (inactive) | > 100 µM (inactive) | > 100 µM (inactive) | > 100 µM (inactive) | > 100 µM (inactive) | > 100 µM (inactive) | > 100 µM (inactive) | > 100 µM (inactive) | –
3 | CC[C@@H]1/C=C/C=C/C[C@H](C)[C@@H](O)[C@](C)(O)C(=O)[C@H](C)[C@@H](O)[C@H](C)C(=O)[C@H](C)[C@@H](O)[C@H](C)/C=C/C(=O)O[C@H]2[C@@H](C)[C@@H](CC1)O[C@@]1(CC[C@@H](C)[C@@H](CC(C)O)O1)[C@@H]2C (some centres not stated) | – | < 0.01 µM (active) | 1.1 µM (active) | 1.59 µM (inactive) | 2.88 µM (inactive) | 1.98 µM (inactive) | < 0.01 µM (active) | 1.68 µM (inactive) | < 0.01 µM (active) | 0.499 µM (active) | < 0.01 µM (active) | – | < 0.0162 µM (active) | 6.5 µM (inactive) | 2.13 µM (inactive) | 3.13 µM (inactive) | 2.92 µM (inactive) | < 0.01 µM (active) | 1.22 µM (inactive) | 2 µM (inactive)
4 | CC1=CCC(=O)[C@]2(C)C(CC(=O)O)[C@]3(C)C4=C(C)C(c5ccoc5)C[C@@H]4O[C@@H]3[C@H](O)[C@@H]12 (some centres not stated) | > 100 µM (inactive) | > 100 µM (inactive) | > 100 µM (inactive) | > 100 µM (inactive) | > 100 µM (inactive) | > 100 µM (inactive) | – | > 100 µM (inactive) | > 100 µM (inactive) | > 100 µM (inactive) | > 100 µM (inactive) | > 100 µM (inactive) | > 100 µM (inactive) | > 100 µM (inactive) | > 100 µM (inactive) | > 100 µM (inactive) | > 100 µM (inactive) | > 100 µM (inactive) | > 100 µM (inactive) | –
5 | CN(C)CC(O)CNC(=O)Nc1ccccc1 (configuration not stated) | > 100 µM (inactive) | > 100 µM (inactive) | > 100 µM (inactive) | > 100 µM (inactive) | > 100 µM (inactive) | > 100 µM (inactive) | > 100 µM (inactive) | > 100 µM (inactive) | > 100 µM (inactive) | > 100 µM (inactive) | – | > 100 µM (inactive) | > 100 µM (inactive) | > 100 µM (inactive) | > 100 µM (inactive) | > 100 µM (inactive) | > 100 µM (inactive) | > 100 µM (inactive) | > 100 µM (inactive) | –
6 | COc1cc(/C=C2\N=C(c3ccccc3)N(c3nc4ccc(Sc5ccccc5)cc4[nH]3)C2=O)cc(OC)c1OC | 22 µM (inactive) | 38.7 µM (inactive) | 20.7 µM (inactive) | 58.6 µM (inactive) | 30.8 µM (inactive) | 45.4 µM (inactive) | 13.2 µM (inactive) | 23.3 µM (inactive) | 27 µM (inactive) | 21.6 µM (inactive) | 18.1 µM (inactive) | 41.1 µM (inactive) | 20.1 µM (inactive) | 24 µM (inactive) | 15.4 µM (inactive) | 30.1 µM (inactive) | 25 µM (inactive) | 17.9 µM (inactive) | 27.1 µM (inactive) | –
7 | COC(=O)C(CC(C)C)NC(=O)C(NC(=O)c1ccc(-c2ccc(Cl)cc2Cl)o1)C(C)C (configuration not stated) | – | 13.7 µM (inactive) | 12.3 µM (inactive) | 14.2 µM (inactive) | 27.5 µM (inactive) | 18.7 µM (inactive) | 16 µM (inactive) | 15.7 µM (inactive) | 22.5 µM (inactive) | 14.9 µM (inactive) | 23.2 µM (inactive) | 24.9 µM (inactive) | 11.6 µM (inactive) | 33.4 µM (inactive) | 21.3 µM (inactive) | 30.8 µM (inactive) | 28.8 µM (inactive) | 15.3 µM (inactive) | 12.2 µM (inactive) | 19.2 µM (inactive)
8 | COc1ccc(CNC(=O)[C@@H](C)N(C)C(=O)[C@@H]2CCCN2C(=O)[C@H](C(C)C)N(C)C(=O)[C@@H](NC(=O)[C@H](C(C)C)N(Cc2ccccc2)Cc2ccccc2)C(C)C)cc1OC (Bn2Val-V[NMeV]P[dNMeA]-{NH(3,4-diMeO-benzyl)}) | 11.5 µM (inactive) | 6.24 µM (inactive) | 6.76 µM (inactive) | 7.4 µM (inactive) | 1.36 µM (inactive) | 5.14 µM (inactive) | 10.8 µM (inactive) | 7.76 µM (inactive) | 10.5 µM (inactive) | 9.73 µM (inactive) | 3.19 µM (inactive) | 12.6 µM (inactive) | 2.66 µM (inactive) | 8.34 µM (inactive) | 7.4 µM (inactive) | 12.8 µM (inactive) | 10.1 µM (inactive) | 7.43 µM (inactive) | 2.23 µM (inactive) | –
9 | CCc1cc(O)c(Cl)c(C)c1Cl | 13 µM (inactive) | 11.9 µM (inactive) | 16.1 µM (inactive) | 12.8 µM (inactive) | 17.8 µM (inactive) | 18.6 µM (inactive) | – | 15.9 µM (inactive) | 19 µM (inactive) | 15.6 µM (inactive) | 11.7 µM (inactive) | 15.1 µM (inactive) | 13.8 µM (inactive) | 19.5 µM (inactive) | 43.3 µM (inactive) | 18.3 µM (inactive) | 21.9 µM (inactive) | 28.7 µM (inactive) | 18.2 µM (inactive) | –
10 | C=CC1(c2ccc(-c3ccccc3)cc2)OCCO1 | – | 49.2 µM (inactive) | 47.5 µM (inactive) | 34.8 µM (inactive) | 23.4 µM (inactive) | > 100 µM (inactive) | 22.9 µM (inactive) | 58.9 µM (inactive) | 34.7 µM (inactive) | > 100 µM (inactive) | 42 µM (inactive) | 79.4 µM (inactive) | > 100 µM (inactive) | > 100 µM (inactive) | 16.6 µM (inactive) | > 100 µM (inactive) | 31.2 µM (inactive) | 51.2 µM (inactive) | 11.9 µM (inactive) | 45.9 µM (inactive)
11 | CCCCCCCCCCCCOCC1(COCCCCCCCCCCCC)COC(c2ccc(N)cc2)OC1 | > 100 µM (inactive) | > 100 µM (inactive) | > 100 µM (inactive) | – | > 100 µM (inactive) | > 100 µM (inactive) | > 100 µM (inactive) | > 100 µM (inactive) | > 100 µM (inactive) | > 10 µM (inactive) | – | > 100 µM (inactive) | > 100 µM (inactive) | > 100 µM (inactive) | > 100 µM (inactive) | > 100 µM (inactive) | > 100 µM (inactive) | > 100 µM (inactive) | – | > 100 µM (inactive)
12 | COc1ccccc1C1(c2c(OC(C)C)c(=O)c2=O)SCCCS1 | > 100 µM (inactive) | > 100 µM (inactive) | > 100 µM (inactive) | > 100 µM (inactive) | > 100 µM (inactive) | > 100 µM (inactive) | – | > 100 µM (inactive) | > 100 µM (inactive) | > 100 µM (inactive) | 65.9 µM (inactive) | > 100 µM (inactive) | – | 87.1 µM (inactive) | > 100 µM (inactive) | > 100 µM (inactive) | > 100 µM (inactive) | > 100 µM (inactive) | 40.5 µM (inactive) | –
13 | c1ccc(C2=NN=C3C(c4ccccc4)=Nc4ccccc4N3C2)cc1 | > 80.2 µM (inactive) | 23.6 µM (inactive) | 10.8 µM (inactive) | 29.3 µM (inactive) | 26.6 µM (inactive) | 26.5 µM (inactive) | 13.9 µM (inactive) | 10 µM (inactive) | 47.3 µM (inactive) | 5.07 µM (inactive) | 3.84 µM (inactive) | 4.58 µM (inactive) | 9.42 µM (inactive) | 34.7 µM (inactive) | 23.5 µM (inactive) | 53.1 µM (inactive) | 10.5 µM (inactive) | 36.7 µM (inactive) | 1.69 µM (inactive) | –
14 | O=C1CC(NC(=O)C(F)(F)F)c2c(Br)sc(N3CCC(c4ccccc4)CC3)c21 (configuration not stated) | > 100 µM (inactive) | 43.9 µM (inactive) | 11.1 µM (inactive) | 3.87 µM (inactive) | 20 µM (inactive) | > 100 µM (inactive) | 5.27 µM (inactive) | 7.85 µM (inactive) | 6.7 µM (inactive) | 13.7 µM (inactive) | 7.94 µM (inactive) | 11.5 µM (inactive) | – | – | 0.973 µM (active) | 64 µM (inactive) | 43.4 µM (inactive) | 4.45 µM (inactive) | 4.05 µM (inactive) | –
15 | CC(CNC(=O)c1ccccc1)(CNC(=O)c1ccccc1)[N+](=O)[O-] | – | > 100 µM (inactive) | > 100 µM (inactive) | > 100 µM (inactive) | > 100 µM (inactive) | > 100 µM (inactive) | > 100 µM (inactive) | – | > 100 µM (inactive) | > 100 µM (inactive) | 67.1 µM (inactive) | – | > 100 µM (inactive) | – | > 100 µM (inactive) | > 100 µM (inactive) | > 100 µM (inactive) | > 100 µM (inactive) | – | > 100 µM (inactive)
